This is an account of results in US20120260922A1, “TOPICAL USE OF HYDROXYTYROSOL AND DERIVATIVES FOR THE PREVENTION OF HIV INFECTION” (priority 2009, published 2012).

For data set [1], the system named is X4-tropic virus (NL.4.3 Ren). Kind of data set: Antiviral activity in PBMC's, X4-tropic virus. The data set is classed as cell-based, HIV-1. The note with it: PBMC's activated with PHA+IL-2; compared with MT-2. Here is the method: Similar assays were carried out using peripheral blood mononuclear cells (PBMC's) for healthy donors, prior activation with PHA+IL-2 during 48 hours and maintaining with IL-2 for at least another 48 hours. In this case the number of cells per well was 250.000. In addition, infection with HIV virus with R5-tropism (JR-Ren) was also included in the assays.

The subject of data set [2] is raltegravir resistant HIV virus (mutation 148). Put plainly: Antiviral activity against raltegravir resistant viruses. The data set is classed as cell-based. The note with it: viruses resistant to raltegravir.
Data set [3] is described as follows: Vaginal tolerance in rabbits after repeated topical administration. In kind it is in vivo. Particulars: rabbit, once daily 7 days, solution 90 and 397 mg/L. Here is the method: To determine the safety of hydroxytyrosol, a study of vaginal tolerance in rabbits after repeated once daily administration during 7 days was performed. Hydroxytyrosol was applied as a solution.

The test system of data set [4] is recombinant virus NL4.3-delta-env-VSV-Luc (HIV VSV pseudotyped virus). The data set is classed as cell-based, HIV-1.
The test system of a further data set is MT-2 cells. Put plainly: Viability assay on non-infected MT-2 cells. Particulars: 48 hour.
The next data set addresses HIV-integrase (Human immunodeficiency virus type 1 group M subtype B, UniProt P04585). Particulars: Huang et al. 2007; cited from earlier work.

Consider `OCCc1ccc(O)c(O)c1` [Hydroxytyrosol, 4-(2-hydroxyethyl)-1,2-benzenediol], for which, in data set [1], the “IC50 value for infection with X4-tropic” value was “higher than in the assays with cell line MT-2”. Also, the “activity against integrase resistant viruses” value in data set [2] is “lack of cross resistance”. For the same compound, the “activity against integrase resistant viruses” value in data set [2] (listed as hydroxytyrosol) was “mantained its activity”. In addition, in data set [3], the “mean irritation value (MIV)” value is reported as 0.00 and the “morphological alterations in the vagina” value was “no morphological alterations”. The “inhibition of VSV pseudotyped viruses” value in data set [4] is reported as “inhibits VSV pseudotyped viruses”. In the data set with MT-2 cells, the “toxicity / cell viability” value is given as “not due to toxicity”. Further, the “effect on in vitro HIV-integrase activity” value at HIV-integrase is “dose-dependent inhibitory effect”.
